Experimental data taken from PMC12591484 (PLOS One, 2025).
Like-named read-outs stand apart in the source and are kept apart here. Marks after values point to notes of the source that are not given here.

Key:
[1] = molecular target: T1, α1S270Cβ3γ2L GABAA receptors (Homo sapiens, UniProt P14867+P18507+P28472, S297C); experiment: Drug protection from pCMBS modification (SCAMP); type: cell-based; parameters: key: +: SCAMP is Substituted Cysteine Modification and Protection and is positive when adding anesthetic to cysteine modifier significantly reduces persistent post-exposure effects due to covalent modification; -: Negative results are indicated by “–“ symbols; conditions: results of this study (*)
T1 construct: expressed in transfected cells; host or cells: Xenopus oocytes injected with capped mRNA, 1α:1β:5γ
T1 sequence (P14867 28-456 S297C): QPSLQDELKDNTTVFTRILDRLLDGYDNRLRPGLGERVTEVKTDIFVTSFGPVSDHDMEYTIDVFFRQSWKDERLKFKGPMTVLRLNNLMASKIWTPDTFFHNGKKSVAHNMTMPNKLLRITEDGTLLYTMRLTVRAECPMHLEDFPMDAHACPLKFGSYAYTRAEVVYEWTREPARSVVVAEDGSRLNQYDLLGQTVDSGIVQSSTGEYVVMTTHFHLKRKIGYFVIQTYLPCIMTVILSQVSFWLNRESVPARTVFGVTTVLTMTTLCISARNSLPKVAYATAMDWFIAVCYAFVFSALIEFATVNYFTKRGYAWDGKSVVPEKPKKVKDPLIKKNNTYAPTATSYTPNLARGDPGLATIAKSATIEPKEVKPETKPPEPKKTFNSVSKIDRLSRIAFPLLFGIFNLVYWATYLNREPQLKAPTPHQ
T1 sequence (P28472 26-473): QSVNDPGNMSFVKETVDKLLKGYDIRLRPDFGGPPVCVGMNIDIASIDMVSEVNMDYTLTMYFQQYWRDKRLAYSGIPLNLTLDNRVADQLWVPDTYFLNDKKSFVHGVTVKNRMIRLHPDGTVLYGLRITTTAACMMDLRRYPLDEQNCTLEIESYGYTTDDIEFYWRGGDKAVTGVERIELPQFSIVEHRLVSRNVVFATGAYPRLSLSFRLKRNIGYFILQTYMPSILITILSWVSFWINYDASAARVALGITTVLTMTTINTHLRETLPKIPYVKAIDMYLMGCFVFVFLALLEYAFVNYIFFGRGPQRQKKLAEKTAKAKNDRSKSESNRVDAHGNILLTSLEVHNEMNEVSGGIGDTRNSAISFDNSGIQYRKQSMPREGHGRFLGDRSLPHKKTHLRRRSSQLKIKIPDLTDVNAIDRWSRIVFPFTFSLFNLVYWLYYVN
T1 sequence (P18507 40-475): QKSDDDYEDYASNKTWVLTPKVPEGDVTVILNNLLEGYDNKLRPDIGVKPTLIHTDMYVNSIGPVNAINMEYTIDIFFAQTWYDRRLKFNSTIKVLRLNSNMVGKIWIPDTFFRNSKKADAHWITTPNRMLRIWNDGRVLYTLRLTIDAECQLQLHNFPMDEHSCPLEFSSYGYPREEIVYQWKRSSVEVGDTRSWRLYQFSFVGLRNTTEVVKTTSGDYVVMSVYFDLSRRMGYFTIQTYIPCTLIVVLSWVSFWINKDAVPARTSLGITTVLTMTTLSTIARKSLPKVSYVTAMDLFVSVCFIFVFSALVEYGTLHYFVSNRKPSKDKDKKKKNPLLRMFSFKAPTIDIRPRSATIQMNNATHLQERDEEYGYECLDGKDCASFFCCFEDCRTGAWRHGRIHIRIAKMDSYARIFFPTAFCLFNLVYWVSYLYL
Method: (§1) Experiments were performed in ND-96 buffer at room temperature (20–22°C). Oocytes were placed in a low-volume (30µl) flow chamber and impaled with borosilicate microelectrodes filled with 3M KCl (resistance 0.5–3 MΩ) and voltage-clamped at −50 mV (model OC-725C; Warner Instruments, Hamden, CT, USA). Superfusate solutions in ND-96 were delivered at 2 ml/min from glass syringe reservoirs via computer-controlled valves (VC-8; Warner Instruments), a micro-manifold (ALA-VM8; ALA Scientific Instruments, Farmingdale, NY, USA), and PTFE tubing. Currents were digitized at 200 Hz on a computer running ClampEx v8.0 software (Molecular Devices, San Jose, CA, USA). Digitized traces were filtered with a 10-Hz low-pass Bessel function, leak corrected and analyzed for peak amplitude off-line using Clampfit v8 software (Molecular Devices).
(§2) Drug protection from pCMBS modification was assessed under pCMBS exposure conditions that produced approximately half of the maximal modification ratio for each mutant receptor, and a least a value of 3. This approach balanced the magnitude of functional modification signals (smaller with less pCMBS exposure) against the challenge of using a reversibly bound ligand to competitively block an irreversible covalent cysteine-modifying reaction. […] Each oocyte was used in a single SCAMP experiment. […] Etomidate was used as a positive control for anesthetic protection in α1M236C and β3M286C mutants and as a negative control in α1S270C, α1A291C, β3L231C, γ2S301C, γ2I242C, and γ2L246C mutants. R-mTFD-MPAB was used as a positive control in α1S270C, α1A291C, β3L231C, and γ2LS301C mutants and as a negative control in α1M236C and β3M286C mutants. For each cysteine mutant and protective drug combination, five oocytes were studied.
(§3) Non-linear least squares fits and statistical analyses were performed in Prism 10.4.0. (GraphPad Software, San Diego, CA, USA). […] Protection (steric inhibition of pCMBS modification) was inferred when anesthetics produced significant reductions in modification ratios relative to control (no anesthetic) values. The statistical significance threshold was p < 0.05.

[2] = molecular target: T2, α1β3γ2I242C GABAA receptors (Homo sapiens, UniProt P14867+P18507+P28472, I281C); parameters: key: +: Mutant-function studies are deemed positive when bulky mutations (mostly tryptophans) at the site significantly reduce positive modulation by anesthetics; -: Negative results are indicated by “–“ symbols; conditions: previously reported; cited from earlier work
T2 construct: expressed in transfected cells; host or cells: Xenopus oocytes injected with capped mRNAs mixed 1α:1β:5γ
T2 sequence (P14867 28-456): as the sequence (P14867 28-456 S297C) above, with C270S counted along it
T2 sequence (P28472 26-473): as the sequence (P28472 26-473) above
T2 sequence (P18507 40-475 I281C): as the sequence (P18507 40-475) above, with I242C counted along it

[3] = tested on: α1β3γ2L GABAA receptors, substituted cysteine at β3M227 (β3– M1); parameters: key: +: SCAMP is Substituted Cysteine Modification and Protection and is positive when adding anesthetic to cysteine modifier significantly reduces persistent post-exposure effects due to covalent modification; -: Negative results are indicated by “–“ symbols; conditions: previously reported; cited from earlier work
[4] = molecular target: T1, α1S270Cβ3γ2L GABAA receptors; experiment: Drug protection from pCMBS modification (SCAMP); type: cell-based; conditions: α1S270C (α+); pCMBS 1 µM x 90 s; […] etomidate, 8 µM R-mTFD-MPAB or 10 µM pTFD-di-iPr-BnOH; n = 5
Method: as §1, §2, §3

[5] = molecular target: T3, α1β3L231Cγ2L GABAA receptors (Homo sapiens, UniProt P14867+P18507+P28472, L256C); experiment: Drug protection from pCMBS modification (SCAMP); type: cell-based; conditions: β3L231C (β–); pCMBS 100 µM x 30 s; […] etomidate, 8 µM R-mTFD-MPAB or 10 µM pTFD-di-iPr-BnOH; n = 5
T3 construct: expressed in transfected cells; host or cells: Xenopus oocytes injected with capped mRNA, 1α:1β:5γ
T3 sequence (P14867 28-456): as the sequence (P14867 28-456 S297C) above, with C270S counted along it
T3 sequence (P28472 26-473 L256C): as the sequence (P28472 26-473) above, with L231C counted along it
T3 sequence (P18507 40-475): as the sequence (P18507 40-475) above
Method: as §1, §2, §3

[6] = molecular target: T4, α1M236Cβ3γ2L GABAA receptors (Homo sapiens, UniProt P14867+P18507+P28472, M263C); experiment: Drug protection from pCMBS modification (SCAMP); type: cell-based; parameters: key: +: SCAMP is Substituted Cysteine Modification and Protection and is positive when adding anesthetic to cysteine modifier significantly reduces persistent post-exposure effects due to covalent modification; -: Negative results are indicated by “–“ symbols; conditions: results of this study (*); some cells also cite [9]
T4 construct: expressed in transfected cells; host or cells: Xenopus oocytes injected with capped mRNA, 1α:1β:5γ
T4 sequence (P14867 28-456 M263C): as the sequence (P14867 28-456 S297C) above, with M236C, C270S counted along it
T4 sequence (P28472 26-473): as the sequence (P28472 26-473) above
T4 sequence (P18507 40-475): as the sequence (P18507 40-475) above
Method: as §1, §2, §3

[7] = tested on: α1β3γ2L GABAA receptors, substituted cysteine at β3M227 (β3– M1); parameters: key: +: Mutant-function studies are deemed positive when bulky mutations (mostly tryptophans) at the site significantly reduce positive modulation by anesthetics; -: Negative results are indicated by “–“ symbols; conditions: previously reported; cited from earlier work
[8] = molecular target: T5, α1β3M286Cγ2L GABAA receptors (Homo sapiens, UniProt P14867+P18507+P28472, M311C); experiment: Drug protection from pCMBS modification (SCAMP); type: cell-based; conditions: β3M286C (β+); pCMBS 1 µM x 30 s; […] etomidate, 8 µM R-mTFD-MPAB or 10 µM pTFD-di-iPr-BnOH; n = 5
T5 construct: expressed in transfected cells; host or cells: Xenopus oocytes injected with capped mRNA, 1α:1β:5γ
T5 sequence (P14867 28-456): as the sequence (P14867 28-456 S297C) above, with C270S counted along it
T5 sequence (P28472 26-473 M311C): as the sequence (P28472 26-473) above, with M286C counted along it
T5 sequence (P18507 40-475): as the sequence (P18507 40-475) above
Method: as §1, §2, §3

[9] = molecular target: T4, α1M236Cβ3γ2L GABAA receptors; experiment: Drug protection from pCMBS modification (SCAMP); type: cell-based; conditions: α1M236C (α–); pCMBS 10 µM x 30 s; […] etomidate, 8 µM R-mTFD-MPAB or 10 µM pTFD-di-iPr-BnOH; n = 5
Method: as §1, §2, §3

SMILES	SCAMP result, α1+ (M2, M3) S270 [1]	SCAMP result, γ2– (M1) I242 [2]	SCAMP result, β3– (M1) M227 [3]	protection from pCMBS modification (significant reduction of modification ratio vs control, p < 0.05) [4]	protection from pCMBS modification (significant reduction of modification ratio vs control, p < 0.05) [5]	SCAMP result, α1– (M1) M236 [6]	SCAMP result, β3– (M1) M227 [7]	protection from pCMBS modification (significant reduction of modification ratio vs control, p < 0.05) [8]	protection from pCMBS modification (significant reduction of modification ratio vs control, p < 0.05) [9]
C=CCC1(c2cccc(C3(C(F)(F)F)N=N3)c2)C(=O)NC(=O)N(C)C1=O (stereo not drawn) [R-mTFD-MPAB, R-5-allyl-1-methyl-5-(m-trifluoromethyl-diazirynylphenyl) barbituric acid]	+*	-^[9]	+^[9]	protection was inferred	protection was also inferred	–	–	–	–
CCOC(=O)c1cncn1[C@H](C)c1ccccc1 [etomidate, R-etomidate]	–	–	–	–	–	+^[9], *	-^[9]	protection was inferred	protection was inferred
